Test results: patent US12239134B2, “Plant antimicrobial compositions including an emulsifier and/or ozone and methods of use” (Arizona Board of Regents on Behalf of The University of …, priority 2018, dated 2025)
Values joined by “and” are separate entries in the source; they are usually repeats but may differ in a detail not shown here. Equal values may be shown once.

Assays:
[1] = tested on: Escherichia coli K-12 ATCC 25253; assay type: cell-based
[2] = tested on: Salmonella Newport; assay: Biofilm formation on food contact surface coupons, direct plating; assay type: cell-based, Salmonella enterica; settings: two-minute treatment
Experimental: A protocol based on direct plating was also evaluated for testing the biofilm formation by Salmonella or L. monocytogenes. Biofilms were formed on three different food contact surface coupons (HDPE, Buna-N rubber, and 316 stainless steel) for up to 3 days in 35 mm mini-petri dishes. Biofilms were formed using a 1:10 diluted TSB solution (10 mL) with either S. enterica or L. monocytogenes inoculum (100 μL). The diluted TSB was changed every 16-18 hours with new 1:10 diluted TSB (10 mL). Coupons were removed for sampling and enumeration of strongly attached bacteria at three different time points (Day 0, 1, and 3). The coupons were rinsed with deionized water five times to remove planktonic cells. Then the coupons were immersed in 10 mL of BPW. The coupons were sonicated for 2 minutes using different settings (Tables 11 and 12) for each organism. After sonication, the solution was serially diluted and plated on Tryptic Soy Agar (TSA). Plates were incubated at 37° C. for 24-48 hours. The colonies were counted and the colony forming units were determined for the various sonication settings, so that the appropriate setting with the most recovery could be determined. […] These settings were used in further experiments to recover the bacterial cells from coupons during sampling and enumeration (by spread plating) of the bacteria in biofilms.
The reduction in bacterial biofilm formation was also tested using a direct plating method. Biofilms were formed on six different food contact surface coupons (HDPE, Buna-N rubber, PC, PVC, and stainless steel 304 and 316) in separate 35 mm mini-petri dishes and evaluated at three different time points (Day 0, 1, and 3). Biofilms were formed using a 1:10 diluted TSB solution (10 mL) with either S. enterica or L. monocytogenes inoculum (100 μL). The coupons were also washed and treated with antimicrobial solutions containing the plant-based emulsifier and the essential oil/plant extracts at various concentrations. The diluted TSB was changed every 16-18 hours with new 1:10 diluted TSB (10 mL). The coupons were rinsed in the antimicrobial solution before adding them to the petri dishes containing the fresh, diluted TSB. After their specific time points, coupons were removed aseptically using sterile forceps from the petri dish. The coupons were rinsed by submerging in 25 mL of sterile deionized H2O and swirled five times to remove planktonic cells. After rinsing, they were placed into a new petri dish immersed in 10 mL of BPW. The coupons were sonicated for 2 minutes on ice using different settings for each organism. After sonication, the sonicated solution was serially diluted using 0.1% peptone water and spread plated on TSA in duplicate. Plates were incubated overnight at 37° C. for 24-48 hours, after which, the colonies were counted, to establish the efficacy of the antimicrobial solutions (Tables 17-25).

SMILES: OO [3% hydrogen peroxide, hydrogen peroxide]
- Bacterial reductions on spinach samples after sanitizer treatments [1]: 0.8-1.2 Log CFU/g and 1.0-1.3 Log CFU/g
- log reduction of E. coli K-12 on spinach [1]: 0.8-1.2 log and 1.0-1.3 log

SMILES: CC(C)=CCCC(C)=CC=O [Citral, citral]
- Survivors of Salmonella Newport on food contact surface ([2]; 0.5% with 0.0001% saponin microemulsion, Day 0, 304 SS): 4.32 Log CFU/mL
- Survivors of Salmonella Newport on food contact surface ([2]; 0.5% with 0.0001% saponin microemulsion, Day 0, 316 SS): 4.36 Log CFU/mL
- Survivors of Salmonella Newport on food contact surface ([2]; 0.5% with 0.0001% saponin microemulsion, Day 0, Buna N): 4.06 Log CFU/mL
- Survivors of Salmonella Newport on food contact surface ([2]; 0.5% with 0.0001% saponin microemulsion, Day 0, HDPE): 3.44 Log CFU/mL
- Survivors of Salmonella Newport on food contact surface ([2]; 0.5% with 0.0001% saponin microemulsion, Day 0, PC): 3.25 Log CFU/mL
- Survivors of Salmonella Newport on food contact surface ([2]; 0.5% with 0.0001% saponin microemulsion, Day 0, PVC): 3.49 Log CFU/mL
- Survivors of Salmonella Newport on food contact surface ([2]; 0.5% with 0.0001% saponin microemulsion, Day 1, 304 SS): 4.52 Log CFU/mL
- Survivors of Salmonella Newport on food contact surface ([2]; 0.5% with 0.0001% saponin microemulsion, Day 1, 316 SS): 4.52 Log CFU/mL
- Survivors of Salmonella Newport on food contact surface ([2]; 0.5% with 0.0001% saponin microemulsion, Day 1, Buna N): 4.34 Log CFU/mL
- Survivors of Salmonella Newport on food contact surface ([2]; 0.5% with 0.0001% saponin microemulsion, Day 1, HDPE): 4.24 Log CFU/mL
- Survivors of Salmonella Newport on food contact surface ([2]; 0.5% with 0.0001% saponin microemulsion, Day 1, PC): 4.20 Log CFU/mL
- Survivors of Salmonella Newport on food contact surface ([2]; 0.5% with 0.0001% saponin microemulsion, Day 1, PVC): 4.27 Log CFU/mL
- Survivors of Salmonella Newport on food contact surface ([2]; 0.5% with 0.0001% saponin microemulsion, Day 3, 304 SS): 4.20 Log CFU/mL
- Survivors of Salmonella Newport on food contact surface ([2]; 0.5% with 0.0001% saponin microemulsion, Day 3, 316 SS): 4.36 Log CFU/mL
- Survivors of Salmonella Newport on food contact surface ([2]; 0.5% with 0.0001% saponin microemulsion, Day 3, Buna N): 4.20 Log CFU/mL
- Survivors of Salmonella Newport on food contact surface ([2]; 0.5% with 0.0001% saponin microemulsion, Day 3, HDPE): 3.56 Log CFU/mL
- Survivors of Salmonella Newport on food contact surface ([2]; 0.5% with 0.0001% saponin microemulsion, Day 3, PC): 3.52 Log CFU/mL
- Survivors of Salmonella Newport on food contact surface ([2]; 0.5% with 0.0001% saponin microemulsion, Day 3, PVC): 4.27 Log CFU/mL
- Survivors of Salmonella Newport on food contact surface ([2]; 0.7% with 0.0001% saponin microemulsion, Day 0, 304 SS): 4.23 Log CFU/mL
- Survivors of Salmonella Newport on food contact surface ([2]; 0.7% with 0.0001% saponin microemulsion, Day 0, 316 SS): 3.59 Log CFU/mL
- Survivors of Salmonella Newport on food contact surface ([2]; 0.7% with 0.0001% saponin microemulsion, Day 0, Buna N): 4.52 Log CFU/mL
- Survivors of Salmonella Newport on food contact surface ([2]; 0.7% with 0.0001% saponin microemulsion, Day 0, HDPE): 2.71 Log CFU/mL
- Survivors of Salmonella Newport on food contact surface ([2]; 0.7% with 0.0001% saponin microemulsion, Day 0, PC): 3.59 Log CFU/mL
- Survivors of Salmonella Newport on food contact surface ([2]; 0.7% with 0.0001% saponin microemulsion, Day 0, PVC): 3.24 Log CFU/mL
- Survivors of Salmonella Newport on food contact surface ([2]; 0.7% with 0.0001% saponin microemulsion, Day 1, 304 SS): 3.36 Log CFU/mL
- Survivors of Salmonella Newport on food contact surface ([2]; 0.7% with 0.0001% saponin microemulsion, Day 1, 316 SS): 3.24 Log CFU/mL
- Survivors of Salmonella Newport on food contact surface ([2]; 0.7% with 0.0001% saponin microemulsion, Day 1, Buna N): 3.52 Log CFU/mL
- Survivors of Salmonella Newport on food contact surface ([2]; 0.7% with 0.0001% saponin microemulsion, Day 1, HDPE): <1 Log CFU/mL
- Survivors of Salmonella Newport on food contact surface ([2]; 0.7% with 0.0001% saponin microemulsion, Day 1, PC): <1 Log CFU/mL
- Survivors of Salmonella Newport on food contact surface ([2]; 0.7% with 0.0001% saponin microemulsion, Day 1, PVC): <1 Log CFU/mL
- Survivors of Salmonella Newport on food contact surface ([2]; 0.7% with 0.0001% saponin microemulsion, Day 3, 304 SS): <1 Log CFU/mL
- Survivors of Salmonella Newport on food contact surface ([2]; 0.7% with 0.0001% saponin microemulsion, Day 3, 316 SS): <1 Log CFU/mL
- Survivors of Salmonella Newport on food contact surface ([2]; 0.7% with 0.0001% saponin microemulsion, Day 3, Buna N): <1 Log CFU/mL
- Survivors of Salmonella Newport on food contact surface ([2]; 0.7% with 0.0001% saponin microemulsion, Day 3, HDPE): <1 Log CFU/mL
- Survivors of Salmonella Newport on food contact surface ([2]; 0.7% with 0.0001% saponin microemulsion, Day 3, PC): <1 Log CFU/mL
- Survivors of Salmonella Newport on food contact surface ([2]; 0.7% with 0.0001% saponin microemulsion, Day 3, PVC): <1 Log CFU/mL
- Survivors of Salmonella Newport on food contact surface ([2]; 1% with 0.0001% saponin microemulsion, Day 0, 304 SS): 3.91 Log CFU/mL
- Survivors of Salmonella Newport on food contact surface ([2]; 1% with 0.0001% saponin microemulsion, Day 0, 316 SS): 4.13 Log CFU/mL
- Survivors of Salmonella Newport on food contact surface ([2]; 1% with 0.0001% saponin microemulsion, Day 0, Buna N): 3.26 Log CFU/mL
- Survivors of Salmonella Newport on food contact surface ([2]; 1% with 0.0001% saponin microemulsion, Day 0, HDPE): 4.45 Log CFU/mL
- Survivors of Salmonella Newport on food contact surface ([2]; 1% with 0.0001% saponin microemulsion, Day 0, PC): 4.20 Log CFU/mL
- Survivors of Salmonella Newport on food contact surface ([2]; 1% with 0.0001% saponin microemulsion, Day 0, PVC): 3.89 Log CFU/mL
- Survivors of Salmonella Newport on food contact surface ([2]; 1% with 0.0001% saponin microemulsion, Day 1, 304 SS): <1 Log CFU/mL
- Survivors of Salmonella Newport on food contact surface ([2]; 1% with 0.0001% saponin microemulsion, Day 1, 316 SS): <1 Log CFU/mL
- Survivors of Salmonella Newport on food contact surface ([2]; 1% with 0.0001% saponin microemulsion, Day 1, Buna N): <1 Log CFU/mL
- Survivors of Salmonella Newport on food contact surface ([2]; 1% with 0.0001% saponin microemulsion, Day 1, HDPE): <1 Log CFU/mL
- Survivors of Salmonella Newport on food contact surface ([2]; 1% with 0.0001% saponin microemulsion, Day 1, PC): <1 Log CFU/mL
- Survivors of Salmonella Newport on food contact surface ([2]; 1% with 0.0001% saponin microemulsion, Day 1, PVC): <1 Log CFU/mL
- Survivors of Salmonella Newport on food contact surface ([2]; 1% with 0.0001% saponin microemulsion, Day 3, 304 SS): <1 Log CFU/mL
- Survivors of Salmonella Newport on food contact surface ([2]; 1% with 0.0001% saponin microemulsion, Day 3, 316 SS): <1 Log CFU/mL
- Survivors of Salmonella Newport on food contact surface ([2]; 1% with 0.0001% saponin microemulsion, Day 3, Buna N): <1 Log CFU/mL
- Survivors of Salmonella Newport on food contact surface ([2]; 1% with 0.0001% saponin microemulsion, Day 3, HDPE): <1 Log CFU/mL
- Survivors of Salmonella Newport on food contact surface ([2]; 1% with 0.0001% saponin microemulsion, Day 3, PC): <1 Log CFU/mL
- Survivors of Salmonella Newport on food contact surface ([2]; 1% with 0.0001% saponin microemulsion, Day 3, PVC): <1 Log CFU/mL
